Here are results for 3 compounds from patent publication US20200171063A1, “Use Of Cholesterol For Promoting Survival And Proliferation Of Primary Medulloblastoma Cells” (Institute For Cancer Research d/b/a The Research Institute …, priority 2017, published 2020).

The subject of test [1] is MB cells isolated from Ptch1+/− mice. Kind of test: Ki67 immunocytochemistry of cultured primary MB cells. The test is classed as cell-based, mouse. The procedure:
MB cells isolated from Ptch1^+/− mice were cultured with NB-B27 culture medium (lacking cholesterol) in the presence of simvastatin or triparanol at designated concentrations.
Cell culture: Primary mouse medulloblastoma cells were isolated from full-blown mouse-derived tumor as described before (Yang et al., 2008, Cancer Cell, 14, 135-145). Obtained cells were cultured on glass coverslips coated with 0.1 mg/ml poly-D-lysine (Millipore, A-003-E). Cells were pulsed with 10 μM of BrdU (Millipore, 19-160) for 2 hours prior to the material collection time point. […]
Histology and immunohistochemistry: Cultured primary MB cells were fixed with 4% PFA on PBS for 15 minutes, permeabilized, and blocked in 10% normal goat serum on PBST (PBS, 0.1% Triton-X100) for 1 hour at room temperature and stained against Ki67 (Abcam, ab15580, 1:1000), NeuN (Abcam, ab104224, 1:200), Caspase 3 (Cell Signaling, 9662, 1:500), BrdU (Sigma-Aldrich, B-8434, 1:500), mCherry (Abcam, ab167453, 1:500), Zic1 (Generous gift from Dr. Sigal, Dana Farber Research Institute, 1:200), S1000 (Sigma-Aldrich, 1:500), YFP (Life Technologies, 1:500).
Prior to BrdU immunostaining, cells were incubated in pH 5.0 buffer for 30 minutes at 37 C. Secondary antibodies were applied at dilution 1:500 on 10% normal goat serum on PBST for 2 hours at room temperature. Samples were counterstained with DAPI and mounted with Fluoromount-G.
MB cells were isolated from Ptc^+/− mouse and cultured in presence of simvastatin (see, FIG. 2A, panels B-D) or triparanol (see, FIG. 2A, panel E), and water-soluble cholesterol (see, FIG. 2A, panels F-J). After 48 hours in vitro, culture cells were fixed, stained against Ki67 (red), and counterstained with DAPI. […] Significance asterisk key: p value <0.05 (*), p<0.01 (**), p<0.001 (***), p<0.0001 (****).

Test [2] concerns Hh signaling (Gli1 expression) in MB cells isolated from Ptch1+/− mice. Nature of the test: Western blot of Gli1 protein expression in Ptc+/− MB cells. The test is classed as cell-based, mouse. The source says: Western blotting: Cells and tissues were lysed in RIPA buffer (Thermo) supplemented with protease (Roche) and phosphatase (Thermo) inhibitors cocktail. Total protein lysates were separated in 8% SDS-PAGE and transferred on PVDF membrane. Membranes were probed with antibodies against Gli1 (Cell Signaling, 1:1000) and GAPDH (Sigma-Aldrich, 1:1000). Western Blot signals were detected with SuperSignal West Pico Substrate and exposed on films. […] Having observed that MB cell proliferation was compromised after cholesterol deficiency, it was postulated that cholesterol may promote Hh pathway activation. Western blotting: Cells and tissues were lysed in RIPA buffer (Thermo) supplemented with protease (Roche) and phosphatase (Thermo) inhibitors cocktail. Total protein lysates were separated in 8% SDS-PAGE and transferred on PVDF membrane. Membranes were probed with antibodies against GLI1 (Cell Signaling, 1:1000), NSDHL (Proteintech, 1:1000), Ptch1 (Novus Biologicals, 1:1000), GAPDH (Sigma-Aldrich, 1:1000). Western Blot signals were detected with SuperSignal West Pico Substrate and exposed on films. MB cells isolated from Ptch1^+/− mice were treated with Simvastatin with and without addition of WSC. At 48 hours after the treatment, cells were harvested to measure Hh signaling through examining Gli1 expression by Western blotting. […]
For orientation: Immunoblotting shows a protein as a band on a membrane.

Test [3] deals with Hh signaling (Gli1 protein expression) in NIH3T3 cells. Nature of the test: Western blot of Gli1 protein in NIH3T3 cells upon Hh treatment. The class given is cell-based. The source says: (§1) Having observed that MB cell proliferation was compromised after cholesterol deficiency, it was postulated that cholesterol may promote Hh pathway activation. Western blotting: Cells and tissues were lysed in RIPA buffer (Thermo) supplemented with protease (Roche) and phosphatase (Thermo) inhibitors cocktail. Total protein lysates were separated in 8% SDS-PAGE and transferred on PVDF membrane. Membranes were probed with antibodies against GLI1 (Cell Signaling, 1:1000), NSDHL (Proteintech, 1:1000), Ptch1 (Novus Biologicals, 1:1000), GAPDH (Sigma-Aldrich, 1:1000). Western Blot signals were detected with SuperSignal West Pico Substrate and exposed on films.
MB cells isolated from Ptch1^+/− mice were treated with Simvastatin with and without addition of WSC. At 48 hours after the treatment, cells were harvested to measure Hh signaling through examining Gli1 expression by Western blotting. To further examine the requirement of cholesterol in Hh signal transduction, NIH3T3 cells that have all components involved in Hh signaling were utilized.
FIG. 4 (panels C and D) show Western blot analysis of GLI1 protein expression in Ptcfl/fl (see, FIG. 4, panel C) and SmoM2 MEFs (see, FIG. 4, panel D) following CreYFP carrying lentivirus infection and subsequent simvastatin, triparanol and water soluble cholesterol treatment for 48 hours in vitro. […] GAPDH was used as a loading control. […]

Test [4] concerns Hh signaling (Gli1 expression) in Ptch1-deficient MEFs. Kind of test: Western blot of Gli1 protein in Ptch1-deficient MEFs (Ptch1fl/fl + Cre lentivirus). The test is classed as cell-based, mouse.
Excerpt: as §1
(§2) Primary mouse embryonic fibroblasts (MEFs) from Ptch1fl/fl mice carrying a proportion of Ptch1 gene flanked by loxp sites (Ellis et al., Genesis, 2003, 36, 158-161), or SmoM2 mice expressing a constitutively activated form of Smo upon Cre recombination (Jeong et al., Genes & Develop., 2004, 18, 937-951) were generated. MEFs were then infected with a lentivirus carrying Cre recombinase to activate Hh signaling, or with an empty vector as a control. At 48 hours after the infection, MEFs were harvested to examine Gli1 protein expression by Western blotting. […]

A further test relates to MB cells. Kind of test: MTT viability assay of MB cells. The test is classed as cell-based, mouse. The conditions noted are these: after treatment with simvastatin or triparanol.
The subject of test [5] is Hh signaling (Gli1 protein expression) in Smo-activated MEFs. Kind of test: Western blot of Gli1 protein in Smo-activated (SmoM2) MEFs. The test is classed as cell-based, mouse. The conditions noted are these: 48 hours.
Excerpt: as §1, §2

Test [6] has as its system Hh signaling (Ptch1 protein expression) in Gli1-overexpressed NIH3T3 cells. Nature of the test: Western blot of Ptch1 protein in Gli1-overexpressed NIH3T3 cells. The class given is cell-based. The conditions noted are these: 48 hours.
Excerpt: as §1
FIG. 4 (panels C and D) show Western blot analysis of GLI1 protein expression in Ptcfl/fl (see, FIG. 4, panel C) and SmoM2 MEFs (see, FIG. 4, panel D) following CreYFP carrying lentivirus infection and subsequent simvastatin, triparanol and water soluble cholesterol treatment for 48 hours in vitro. […] GAPDH was used as a loading control. […] In the absence of Hh ligand, its receptor Ptch1, tethers pathway effector Smo. Bound to Ptch1, Hh releases Smo, causes activation of Gli1 transcription factor, and leads to transcription of Hh pathway genes (Gli1, Ptch1, etc.). Cholesterol promotes Smo activation during Hh signal transduction. […]

Test [7] deals with Ptc+/− MB subcutaneous allograft. Kind of test: Ptc+/− MB subcutaneous allograft in CB17/SCID mice. The class given is in vivo, mouse. As to conditions: vismodegib 5 mg/kg/day, per os.

Consider `CC(C)CCC[C@@H](C)[C@H]1CC[C@H]2[C@@H]3CC=C4C[C@@H](O)CC[C@]4(C)[C@H]3CC[C@]12C` [WSC, cholesterol], for which the “tumor cell proliferation over time (Ki67 immunocytochemistry)” value in test [1] (15 μM WSC, 0 to 96 hours time course) is “prolonged tumor cell proliferation”. The “rescue of repressed MB cell proliferation (Ki67)” value in test [1] (addition of cholesterol after simvastatin or triparanol treatment, 48 hours) is listed as “significantly rescued”. The “MB cell proliferation in control culture (Ki67)” value in test [1] (exogenous cholesterol, control culture without inhibitor) is given as “enhanced MB cell proliferation”. Also, the “Gli1 expression levels (western blotting)” value in test [2] (15 μM WSC, in vitro for 96 hours) is “rescued Gli1 expression levels”. Further, the “Gli1 expression in Simvastatin treated MB cells” value in test [2] (addition of exogenous cholesterol, 48 hours) is given as “rescued Gli1 expression”. For the same compound, in test [3] (NIH3T3 cells, exogenous cholesterol added), the “Gli1 protein expression after Simvastatin or Triparanol treatment” value is “upregulated”. Also, in test [4] (addition of exogenous cholesterol), the “restoration of Gli1 expression inhibited by simvastatin or triparanol” value is listed as “restored”.

In the case of `CCN(CC)CCOc1ccc(C(O)(Cc2ccc(Cl)cc2)c2ccc(C)cc2)cc1` (centres unmarked) [triparanol], in test [1] (48 hours in culture, NB-B27 medium lacking cholesterol, vs DMSO control), the “percentage of proliferating MB cells (Ki67+)” value is on record as “Reduced proliferation”. Besides, in the test with MB cells, the “proliferation of MB cells by MTT viability assay” value is “Repressed proliferation”. The Gli1 protein expression result in test [3] (NIH3T3 cells upon Hh treatment, 48 hours) is recorded as “significantly repressed”. For the same compound, the Gli1 expression entry in test [4] (48 hours) is on record as “dramatically inhibited”. Also, in test [5], the “up-regulation of Gli1 protein expression” value is given as “not altered”. Besides, the “upregulation of Ptch1 protein expression” value in test [6] is “not altered”.

Turning to `CS(=O)(=O)c1ccc(C(=O)Nc2ccc(Cl)c(-c3ccccn3)c2)c(Cl)c1` [vismodegib (GDC0449), vismodegib], the MB growth entry in test [7] is on record as “prohibited MB growth”.
